Data set [1] has as its target DHODH (human) (Homo sapiens, UniProt Q02127). Kind of data set: DHODH in vitro enzymatic activity assay (human). It is filed as biochemical. The method, then: (§1) Pharmacological parameters of compound 1 (Table 2) were determined by standard procedures, i.e. DHODH and kinase activity assays were performed according to Davis et al., (1996. The immunosuppressive metabolite of leflunomide is a potent inhibitor of human dihydroorotate dehydrogenase.

The target in data set [2] is DHODH (mouse) (Mus musculus, UniProt O35435). In words: DHODH in vitro enzymatic activity assay (mouse). Type of data set: biochemical. As to conditions: read-out: Inhibitory activity in vitro (IC50) DHODH (mouse).
Chain of DHODH (mouse) (O35435 whole entry): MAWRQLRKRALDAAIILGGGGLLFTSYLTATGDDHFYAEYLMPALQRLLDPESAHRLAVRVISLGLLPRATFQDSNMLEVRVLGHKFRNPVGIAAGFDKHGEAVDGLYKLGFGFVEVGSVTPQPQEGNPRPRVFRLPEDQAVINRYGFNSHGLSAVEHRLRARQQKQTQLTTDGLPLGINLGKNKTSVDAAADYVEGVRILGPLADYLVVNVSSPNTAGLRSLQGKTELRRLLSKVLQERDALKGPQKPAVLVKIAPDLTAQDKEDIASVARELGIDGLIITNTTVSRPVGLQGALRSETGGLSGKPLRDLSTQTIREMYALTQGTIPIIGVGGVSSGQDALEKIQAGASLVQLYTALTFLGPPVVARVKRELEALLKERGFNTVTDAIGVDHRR
For data set [3], the system named is HAdV D37. Kind of data set: virus yield assay HAdV D37 in A549. Type of data set: cell-based, human adenovirus. Particulars: MOI 20, supernatant transfer 6 d post-infection, n=4. The method, then: (§2) A549 cells were infected at MOI 20 and continuously treated with the given concentrations of compound 1. Virus-containing supernatants were transferred to uninfected cells at 4 d^1, 6 d^2 or 2 d^3 post-infection, respectively, and used for quantitation of infectious virus. Percentages of virus-positive cells per total cells were determined on the basis of indirect immunofluorescence staining (monoclonal anti-adenovirus hexon protein antibody; Abcam B025-AD51/ab7428) by microscopic countings: n=4 for C02, C05, D19, D37; n=3 for B03k, E04k; n=1 for A31, B03, D08, E04.

Data set [4] has as its system Vaccina (vaccine virus, strain IHD-5). Kind of data set: antiviral assay vaccinia virus in primary human fibroblasts. It is filed as cell-based. As to conditions: Orthopoxvirus vaccinia, Fibroblast, read-out: IC50 of virus replication Vaccina. The method, then:
(§3) Antiviral assays were performed as described in the literature (Marschall, M. et al., 2000. Antimicrob. Agents Chemother. 44, 1588-1597; Marschall M. et al., 2012. Antimicrob. Agents Chemother. 56, 1135-1137; Kindsmüller et al., 2009. J. Virol. 83, 9045-9056; Rechter et al., 2006. Antiviral Res. 72, 197-206).

Data set [5] relates to EBV, Epstein-Barr virus, strain B95-8. Kind of data set: antiviral assay EBV in 293T (T81GFP). It is filed as cell-based. As to conditions: human gammaherpesvirus 4, n = 4, read-out: IC50 of virus replication EBV. The method, then:
as §3

Data set [6] deals with HAdV A31. In words: virus yield assay HAdV A31 in A549. It is filed as cell-based, human adenovirus. Particulars: MOI 20, supernatant transfer 4 d post-infection, n=1. The method, then:
as §2

Data set [7] concerns J-JHAN. Kind of data set: drug-induced cytotoxicity, microscopic evaluation, J-JHAN. Particulars: HHV-6 experiment. Type of data set: cell-based.
The subject of data set [8] is HAdV C05. In words: virus yield assay HAdV C05 in A549. It is filed as cell-based, human adenovirus. As to conditions: MOI 20, supernatant transfer 2 d post-infection, n=4. The method, then: as §2
The test system of data set [9] is HHV-6, human herpesvirus type 6A, strain U1102. In words: antiviral assay HHV-6 in J-JHAN. Particulars: n = 8, read-out: IC50 of virus replication HHV-6. It is filed as cell-based. The method, then: as §3
Data set [10] deals with HSV-1, herpes simplex virus type 1, strain 166v VP22-GFP. In words: GFP-based reporter assay HSV-1 in Vero. It is filed as cell-based. Particulars: Human alphaherpesvirus 1, Vero, read-out: IC50 of virus replication HSV-1. The method, then: as §3
Data set [11] addresses JAK-1/-2/-3. In words: kinase activity assay JAK. Type of data set: biochemical. Particulars: read-out: Inhibitory activity in vitro (IC50) JAK-1/-2/-3. The method, then: as §1
Data set [12] concerns HSV-2, herpes simplex virus type 2, isolate 01-6332. Kind of data set: antiviral assay HSV-2 in Vero. It is filed as cell-based. As to conditions: Human alphaherpesvirus 2, n = 4, read-out: IC50 of virus replication HSV-2. The method, then: as §3
The target of data set [13] is AKT-1/-2/-3. Kind of data set: kinase activity assay AKT. Particulars: read-out: Inhibitory activity in vitro (IC50) AKT-1/-2/-3. Type of data set: biochemical. The method, then:
as §1

Data set [14] has as its system HAdV D08. Kind of data set: virus yield assay HAdV D08 in A549. It is filed as cell-based, human adenovirus. As to conditions: MOI 20, supernatant transfer 4 d post-infection, n=1. The method, then: as §2
In data set [15] the test system is HAdV C02. Kind of data set: virus yield assay HAdV C02 in A549. It is filed as cell-based, human adenovirus. Particulars: MOI 20, supernatant transfer 2 d post-infection, n=4. The method, then:
as §2

The test system of data set [16] is HAdV E04. In words: virus yield assay HAdV E04 in A549. Type of data set: cell-based, human adenovirus. Particulars: MOI 20, supernatant transfer 6 d post-infection, n=1. The method, then:
as §2

For data set [17], the system named is primary human fibroblasts. Kind of data set: drug-induced cytotoxicity, microscopic evaluation, primary human fibroblasts. Type of data set: cell-based.
Data set [18] concerns 293T (T81GFP). Kind of data set: drug-induced cytotoxicity, microscopic evaluation, 293T (T81GFP). Type of data set: cell-based. Particulars: EBV experiment.
Data set [19] concerns HAdV D19. In words: virus yield assay HAdV D19 in A549. Type of data set: cell-based, human adenovirus. As to conditions: MOI 20, supernatant transfer 4 d post-infection, n=4. The method, then: as §2
Data set [20] deals with A549. In words: drug-induced cytotoxicity, microscopic evaluation, A549. It is filed as cell-based. Particulars: HAdV-2 experiment, A549, 1-10 μM.
Data set [21] deals with Human adenovirus type 2 (HAdV-2). Kind of data set: plaque reduction assay HAdV-2 in A549. Type of data set: cell-based. Particulars: Human mastadenovirus C, A549, n = 8, read-out: IC50 antiviral activity against HAdV-2. The method, then: as §3
For data set [22], the system named is HAdV B03k. In words: virus yield assay HAdV B03k (clinical isolate) in A549. It is filed as cell-based, human adenovirus. As to conditions: MOI 20, supernatant transfer 6 d post-infection, n=3. The method, then:
as §2

The subject of data set [23] is Vero. Kind of data set: drug-induced cytotoxicity, microscopic evaluation, Vero. It is filed as cell-based.
Data set [24] concerns HAdV E04k. In words: virus yield assay HAdV E04k (clinical isolate) in A549. As to conditions: MOI 20, supernatant transfer 6 d post-infection, n=3. It is filed as cell-based, human adenovirus. The method, then:
as §2

Data set [25] has as its target PI3K-α/-β/-γ/-δ. In words: kinase activity assay PI3K. Type of data set: biochemical. As to conditions: read-out: Inhibitory activity in vitro (IC50) PI3K-α/-β/-γ/-δ. The method, then: as §1
Data set [26] has as its system VZV, varicella zoster virus, strain Oka. Kind of data set: antiviral assay VZV in primary human fibroblasts. Type of data set: cell-based. Particulars: Human alphaherpesvirus 3, Fibroblast, read-out: IC50 of virus replication VZV. The method, then: as §3
In data set [27] the test system is HAdV B03. In words: virus yield assay HAdV B03 in A549. Type of data set: cell-based, human adenovirus. Particulars: MOI 20, supernatant transfer 6 d post-infection, n=1. The method, then: as §2

SMILES strings stand for the structures.

Chain of DHODH (human) (Q02127 whole entry): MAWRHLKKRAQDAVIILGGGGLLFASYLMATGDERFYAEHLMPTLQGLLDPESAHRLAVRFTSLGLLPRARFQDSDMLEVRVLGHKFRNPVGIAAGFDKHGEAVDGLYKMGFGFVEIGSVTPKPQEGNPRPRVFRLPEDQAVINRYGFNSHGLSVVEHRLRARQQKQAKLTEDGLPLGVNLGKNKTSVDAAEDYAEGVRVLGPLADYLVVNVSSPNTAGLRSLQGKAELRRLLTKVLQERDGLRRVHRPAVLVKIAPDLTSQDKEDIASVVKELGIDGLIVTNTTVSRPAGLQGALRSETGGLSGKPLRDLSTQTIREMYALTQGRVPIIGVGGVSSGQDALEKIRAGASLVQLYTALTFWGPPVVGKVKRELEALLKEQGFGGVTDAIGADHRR

With `O=C(Nc1c(F)c(F)c(-c2cccc(OC(F)(F)F)c2)c(F)c1F)c1ccsc1C(=O)O` [compound 1, 3-(2,3,5,6-tetrafluoro-3′-trifluoromethoxy-biphenyl-4-ylcarbamoyl)-thiophene-2-carboxylic acid], the IC50 in [1] (purified human DHODH, read-out: Inhibitory activity in vitro (IC50) DHODH (human)) was 1.5 ± 0.2 nM; in data set [2], 3.2 ± 0.8 nM; in data set [4], 9850 ± 6610 nM; in data set [5], greater than 10000 nM; in [9], 1550 ± 310 nM; in data set [10] it was greater than 10000 nM. Moreover, the IC50 in data set [11] is greater than 10000 nM; in data set [12], greater than 10000 nM; in data set [13], greater than 15000 nM; in [21] it was 560 ± 20 nM; in [25], greater than 1000 nM; in [26] it was 3550 ± 260 nM. Further, the “virus-positive cells (0 μM = 100), HAdV D37” value was determined as 96% in data set [3] (0.37 μM) and 3% in [3] (1.11 μM). Moreover, the “virus-positive cells (0 μM = 100), HAdV A31” value in [6] (0.37 μM) came to 72%; in data set [6] (1.11 μM), 3%. Besides, the “Cytotoxicity [1-10 μM]” value in data set [7] was “none”; in data set [17] (VZV experiment), “none”; in data set [17] (Vaccina experiment), “none”; in [18] it was “none”; in [20], “None”; in data set [20] (listed as Compound 1) it was “none”. The “Cytotoxicity [1-10 μM]” value in [23] (HSV-1 experiment) and in [23] (HSV-2 experiment) was “none” in each case. For the same compound, the entries for the “virus-positive cells (0 μM = 100), HAdV C05” value in data set [8] (0.37 μM) and in [8] (1.11 μM) were 82% and 6%, respectively. Further, the “virus-positive cells (0 μM = 100), HAdV D08” value stood at 6% in [14] (0.37 μM) and 0% in data set [14] (1.11 μM). The “virus-positive cells (0 μM = 100), HAdV C02” value in data set [15] (0.37 μM) stood at 100%; in [15] (1.11 μM) it was 9%. Moreover, the results for the “virus-positive cells (0 μM = 100), HAdV E04” value in data set [16] (0.37 μM) and in data set [16] (1.11 μM) were 128% and 23%, respectively. Moreover, the “virus-positive cells (0 μM = 100), HAdV D19” value in data set [19] (0.37 μM) is reported as 81%; in data set [19] (1.11 μM), 4%. In addition, the “virus-positive cells (0 μM = 100), HAdV B03k” value in [22] (0.37 μM) amounted to 70%; in [22] (1.11 μM), 11%. Moreover, the “virus-positive cells (0 μM = 100), HAdV E04k” value in [24] (0.37 μM) amounted to 115%; in data set [24] (1.11 μM), 9%. Besides, the “virus-positive cells (0 μM = 100), HAdV B03” value in data set [27] (0.37 μM) came to 127%; in data set [27] (1.11 μM), 29%.

With `Nc1nc2c(ncn2COC(CO)CO)c(=O)[nH]1` [GCV, reference compound], the DHODH activity remaining in data set [1] (at 10 μM, duplicate testings) is listed as 100%.

The values above are taken from patent US9795590B2, “Anti-inflammatory agents as virostatic compounds” (Panoptes Pharma GmbH, priority 2014, dated 2017).
